Key:
[1] = Solubility, 24-hour equilibration at room temperature; assay type: physicochemical; conditions: for Solubility: approx. at 25° C.
In short: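 20-50 mg sample in 1 ml solvent, equilibrated 24 h at room temperature. Dissolved amount measured gravimetrically or by UV-VIS, and pH of the clear solution recorded; salts may dissociate to free form, affecting solubility and pH.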

[2] = pH of saturated solution or 1% suspension in water; assay type: physicochemical; conditions: room temperature
Description: pH Value: The pH at room temperature of a saturated solution or 1% suspension of the drug substance in water was recorded.

[3] = Intrinsic dissolution rate, rotation disk method; assay type: physicochemical; conditions: for Intrinsic Dissolution Rate: 37° C., 200 r.p.m.
In short: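 Pellets of drug substance dissolved by rotating disk at 200 r.p.m. into a 500 mL vessel at 37 °C. Dissolved drug monitored continuously by recirculating the medium through a UV cell.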

[4] = Solution stability (HPLC); assay type: physicochemical
Description: (§1) All samples were prepared/diluted to a concentration of 0.2 mg/mL in methanol prior to analysis by HPLC. A freshly prepared sample of each salt was used as the reference standard for external standard calibration analysis.

Solid-state stability = assay type: physicochemical; conditions: for Bulk stability (XRPD): 1 week
Description: as §1

[5] = Stability of mixtures with excipients; assay type: physicochemical
Description: as §1

[6] = pH of saturated solution or 1% suspension in water; assay type: physicochemical; conditions: In pH = 6.8 buffer
[7] = Equilibration in solvents and buffers: form conversion
[8] = 2 mg/mL in methanol, 1 week at 50° C.
[9] = 2 mg/mL in water, 1 week at 50° C.
[10] = 2 mg/mL, 100 mM lactate buffer pH 3.5, 1 week at 50° C.
[11] = 2% in 0.5% HPMC 4000, 1 day at RT
[12] = 2% in 0.5% Klucel HF, 1 day at RT
[13] = 2% in 0.8% Tween 80, 1 day at RT
[14] = 5% solution, 1 day at RT (diluted 1:100 in pH 6.8 buffer)
[15] = Bulk stability, 2 weeks, 50° C.
[16] = Bulk stability, 2 weeks, 50° C./20% water
[17] = Bulk stability, 2 weeks, 50° C./75% r.h.
[18] = Light study, 1200 kLux (300-800 nm)
[19] = Mixture 1: 50% PVP + 50% Crospovidone, 50° C./75% r.h., 2 weeks
[20] = Mixture 2: 50% Starch 1500 + 5% MCC 102, 50° C./75% r.h., 2 weeks
[21] = Mixture 3: 5% PVP + 5% Crospovidone + 10% Starch 1500 + 80% MCC 102, 50° C./75% r.h., 2 weeks
[22] = Mixture 4: 99% Lactose + 1% BHT/BHA, 50° C./75% r.h., 2 weeks
[23] = Mixture 5: 99% Mannitol + 1% BHT/BHA, 50° C./75% r.h., 2 weeks
[24] = Mixture 6: 50% Mannitol + 47% HPCLH21 + 1% BHT/BHA + 2% Magnesium Stearate, 50° C./75% r.h., 2 weeks
[25] = Mixture 7: 50% Cetyl Alcohol + 49% HPCLH21 + 1% Magnesium Stearate, 50° C./75% r.h., 2 weeks
[26] = Mixture 8: 100% PEG 3350, 50° C./75% r.h., 2 weeks

- aqueous solubility [1]: 2.4 mg/mL
- solubility in methanol, in words [1]: high
- solubility in other common / remaining organic solvents, in words [1]: considerable
- Solubility ([1]; 0.1N HCl): 0.2 mg/mL
- Solubility ([1]; 2-Propanol): 0.8 mg/mL
- Solubility ([1]; Acetone): 4.5 mg/mL
- Solubility ([1]; Ethanol): 2.1 mg/mL
- Solubility ([1]; Ethyl acetate): 6.5 mg/mL
- Solubility ([1]; Methanol): 16.6 mg/mL
- Solubility ([1]; Propylene glycol): 13.2 mg/mL
- Solubility ([1]; Water): 2.4 mg/mL
- approximate solubility in water as % ([1]; estimated from mg/mL assuming solution density 1 g/mL): approximately 0.3%
- Solubility ([1]; pH = 6.8 buffer): 0.7 mg/mL
- pH of saturated solution [2]: 5.65
- intrinsic dissolution (rate), in words [3]: good
- Intrinsic Dissolution Rate ([3]; HCl 0.1N): 0.13 mg min^−1 cm^−2
- Intrinsic Dissolution Rate ([3]; Water, free base pellet disintegrated, not true intrinsic rate): 0.68 mg min^−1 cm^−2
- pH of initial mixture ([4]; 2 mg/mL in 100 mM lactate buffer, pH 3.5): 3.52
- % DP (total degradation products) [4, 8]: 0.38 % area
- assay [4, 8]: [99.25]
- pH of initial mixture ([4]; 2 mg/mL in water): 5.93
- % DP (total degradation products) [4, 9]: 0.89 % area
- CL (appearance) [4, 9]: A↓*
- assay [4, 9]: [97.53]
- % DP (total degradation products) [4, 10]: 1.30 % area
- CL (appearance) [4, 10]: A↓*
- assay ([4]; 2 mg/mL, 100 mM lactate buffer pH 3.5, 1 week at 50° C., external standard): [96.61]
- % DP (total degradation products) ([4]; 2% in 0.5% CMC, 1 day at RT): 0.46 % area
- CL (appearance) ([4]; 2% in 0.5% CMC, 1 day at RT): A↓↓
- assay ([4]; 2% in 0.5% CMC, 1 day at RT): [85.28]
- % DP (total degradation products) [4, 11]: 0.43 % area
- assay [4, 11]: [100.0]
- % DP (total degradation products) [4, 12]: 0.43 % area
- assay [4, 12]: [100.6]
- % DP (total degradation products) [4, 13]: 0.43 % area
- assay [4, 13]: [97.83]
- % DP (total degradation products) [4, 14]: 1.40 % area
- CL (appearance) [4, 14]: A↓
- assay [4, 14]: [98.91
- stability characteristics, in words ([4]; both in solution and in the solid state): very good stability
- Unstressed (% Area) ([4]; unstressed baseline of the stability study): 99.63% Area
- Bulk stability (XRPD) (Solid-state stability; 80° C.): no change
- Bulk stability (XRPD) (Solid-state stability; 80° C./75% r.h.): no change
- % DP (total degradation products) (Solid-state stability; [15]): 0.44 % area
- assay (Solid-state stability; [15]): [99.38]
- % DP (total degradation products) (Solid-state stability; [16]): 0.56 % area
- assay (Solid-state stability; [16]): [100.6]
- % DP (total degradation products) (Solid-state stability; [17]): 0.56 % area
- assay (Solid-state stability; [17]): [99.04]
- % DP (total degradation products) (Solid-state stability; [18]): 2.58 % area
- CL (appearance) (Solid-state stability; [18]): C (C = medium discoloration)
- assay (Solid-state stability; [18]): [98.15]
- % DP (total degradation products) [5, 19]: 0.6 % area
- % DS (drug substance) [5, 19]: 99.4 % area
- % DP (total degradation products) [5, 20]: 0.5 % area
- % DS (drug substance) [5, 20]: 99.5 % area
- % DP (total degradation products) [5, 21]: 0.6 % area
- % DS (drug substance) [5, 21]: 99.4 % area
- % DP (total degradation products) [5, 22]: 0.5 % area
- % DS (drug substance) [5, 22]: 99.5 % area
- % DP (total degradation products) [5, 23]: 0.5 % area
- % DS (drug substance) [5, 23]: 99.5 % area
- % DP (total degradation products) [5, 24]: 0.5 % area
- % DS (drug substance) [5, 24]: 99.5 % area
- % DP (total degradation products) [5, 25]: 0.5 % area
- % DS (drug substance) [5, 25]: 99.5 % area
- % DP (total degradation products) [5, 26]: 0.5 % area
- % DS (drug substance) [5, 26]: 99.5 % area
- % DP (total degradation products) ([5]; Standard, freshly prepared): 0.3 % area
- % DS (drug substance) ([5]; Standard, freshly prepared): 99.7 % area
- stability with all excipient mixtures tested, in words ([5]; after 2 weeks at 50° C./75% r.h.): very good stability
- pH of saturated solution [6]: 5.67
- polymorphs upon equilibration ([7]; ambient temperature): No additional polymorphs are detected
- conversion upon equilibration ([7]; phosphate buffer (pH=6.8)): converts to the free base
Structure (SMILES): Cc1[nH]c2ccccc2c1CCNCc1ccc(/C=C/C(=O)NO)cc1.Cl [HCl, hydrochloride salt of N-hydroxy-3-[4-[[[2-(2-methyl-1H-indol-3-yl)ethyl]amino]methyl]phenyl]-2E-2-propenamide]
